In one assay the test system is LDH. Description: Cross-linking assay, LDH. Conditions: BS3 cross-linking, SDS-PAGE.
Assay [1] deals with MDA-MB-468 (468) breast cancer cells. In words: LC-MS/MS metabolite profiling versus PHGDH knockdown. In kind it is cell-based. Conditions: 30 μM, 24 hours.
Description: MDA-MB-468 (468) breast cancer cells (PHGDH amplified) were grown in DMEM supplemented with FBS (10%), penicillin, and streptomycin. 468 cells stably expressing PHGDH knockdown constructs were generated by infecting 468 cells with lentivirus harboring pLKO.1 shRNAs against PHGDH (sh29) or (sh31) and a nontargeting control (shGFP). Following infections, cells were selected for 2 days using puromycin prior to seeding in 10 cm plates for the experiment. PHGDH knockdown cells (sh29 and sh31) were seeded in 10 cm plates, each in triplicate, and shGFP cells in sextuplet. […] After 24 hours of treatment, the media were aspirated, and cells were washed with cold PBS prior to flash freezing. Subsequently, polar metabolites were extracted with 80% methanol for 30 minutes, scraped, transferred to Eppendorf tubes, centrifuged to remove insoluble matter, and dried. […] Briefly, samples were injected and analyzed using a 5500 QTRAP triple quadrupole mass spectrometer (AB/Sciex) coupled to a Prominence UFLC system (Shimadzu). Approximately 250 metabolites were analyzed by single reaction monitoring (SRM).
Assay [2] deals with T1, PHGDH (Homo sapiens, UniProt O43175).
T1 sequence (O43175 1-533): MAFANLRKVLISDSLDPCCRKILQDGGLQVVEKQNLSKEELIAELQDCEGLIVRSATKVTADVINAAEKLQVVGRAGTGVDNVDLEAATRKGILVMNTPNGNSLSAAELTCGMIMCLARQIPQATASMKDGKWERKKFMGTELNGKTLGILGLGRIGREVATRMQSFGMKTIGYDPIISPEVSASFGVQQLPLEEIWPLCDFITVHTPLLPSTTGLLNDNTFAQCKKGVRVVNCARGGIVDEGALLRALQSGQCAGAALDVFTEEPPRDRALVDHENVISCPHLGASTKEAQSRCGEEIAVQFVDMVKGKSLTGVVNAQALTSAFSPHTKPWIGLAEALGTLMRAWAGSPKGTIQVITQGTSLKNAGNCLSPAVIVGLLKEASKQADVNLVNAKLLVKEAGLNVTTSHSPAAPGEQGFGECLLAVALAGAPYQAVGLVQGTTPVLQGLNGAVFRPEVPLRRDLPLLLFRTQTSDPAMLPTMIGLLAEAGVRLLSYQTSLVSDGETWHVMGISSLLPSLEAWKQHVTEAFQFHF
Description: PHGDH assay (NADH fluorescence, PSAT1 coupled). Type of assay: biochemical. Further details: His6; made in house; host or cells: BL21 E. coli.
Description: (§2) PHGDH activity was measured in 96-well plates by monitoring NADH fluorescence (Ex340 nm/Em460 nm) over time. PSAT1 was included to prevent product inhibition of PHGDH.

The target of another assay is T2, MDH1 (Homo sapiens, UniProt P40925).
T2 construct: purchased Sigma SRP6103
T2 sequence (P40925 1-334): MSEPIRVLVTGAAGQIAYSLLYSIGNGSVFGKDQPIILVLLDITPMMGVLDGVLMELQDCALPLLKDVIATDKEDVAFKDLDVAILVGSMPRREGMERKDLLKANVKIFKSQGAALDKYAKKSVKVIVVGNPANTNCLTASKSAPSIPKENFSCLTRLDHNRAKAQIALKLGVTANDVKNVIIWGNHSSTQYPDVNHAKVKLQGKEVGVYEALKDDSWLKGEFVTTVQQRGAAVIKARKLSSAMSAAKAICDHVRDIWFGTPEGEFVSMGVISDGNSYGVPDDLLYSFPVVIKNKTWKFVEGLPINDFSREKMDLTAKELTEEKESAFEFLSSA
In words: MDH1 assay (kit, recombinant enzyme). In kind it is biochemical. Conditions: at concentrations consistent with the PHGDH IC50. On the procedure:
(§1) Enzyme activities were assayed using kits (LDH: Sigma MAK06; MDH1: Sigma MAK196-1KT) according to the manufacturer's instructions with commercially available recombinant enzyme (LDH: Sigma 59747; MDH1: Sigma SRP6103).

The target in assay [3] is truncated form of PHGDH, which lacks the C-terminal domain (Homo sapiens, UniProt O43175).
Description: as §2
The next assay relates to cells. In words: Acute drug treatment with 13C6-glucose tracing (GCMS, LC-MS/MS). Type of assay: cell-based. Conditions: LC-MS/MS, greater panel of metabolites.
In the next assay the test system is Carney cells. The assay is described as above. Type of assay: cell-based. Conditions: acute treatment; for serine labeling: dose response.
Assay [4] concerns the target T1, PHGDH. Conditions: BS3 cross-linking, SDS-PAGE.
Description: Samples were run on SDS-PAGE and colloidal coomassie stained (Bio-Rad).
For another assay, the system named is MCF7 cells. In words: Proliferation assay, MCF7. In kind it is cell-based.
The subject of assay [5] is MDA-MB-468, MDA-MB-436, HCC70, and Hs578T. In words: cells. Conditions: read-out: growth inhibition.
Description: (§3) Cells were plated at a low density in 96 or 24 well plates in serine containing media. The following day, media was aspirated, cells were washed with PBS, and fresh serine replete or deplete media containing drug (15 μM, 30 μM) or vehicle (DMSO) was added. Cells were grown for 3 to 5 days, with drug and media changed daily before assaying relative cell numbers.
Assay [6] deals with lactate dehydrogenase (LDH). Description: LDH assay (kit, recombinant enzyme). In kind it is biochemical. Conditions: at concentrations consistent with the PHGDH IC50 / drug concentrations used in cells. On the procedure: as §1
For the next assay, the system named is MDA-MB-468 cells. Description: Proliferation assay, MDA-MB-468. In kind it is cell-based.

This note sets out measurements from US10494365B2, “Small molecule inhibitor of 3-phosphoglycerate dehydrogenase and uses thereof” (The Scripps Research Institute, priority 2015, dated 2019).

Entries after “also recorded” stand apart in the source; their conditions may differ.

Description for Carney cells: Carney cells acclimated to growth in MEM (Corning) were plated at 9×10^5 cells per 6 cm dish the night before. The following morning, media was replaced with fresh media containing (1) (1 μM, 15 μM, 30 μM) or vehicle control (DMSO) for 1h. Media was then aspirated, cells were washed with PBS, and fresh glucose free MEM (Gibco) supplemented with ^13C6-glucose (3 g/L, Cambridge Isotopes) and 10% dialyzed FBS containing drug or DMSO was added. After 2h, cells were quickly washed with cold PBS on ice and flash frozen. Polar metabolites were extracted as in the GCMS methods.
Polar metabolites were extracted with 2 ml MeOH/H2O (4:1) for 30 min on dry ice, scraped, transferred to 2 ml tubes, centrifuged (30 min, 15000 rpm), and the supernatants dried under vacuum. Samples were derivatized as previously described and analyzed on an Agilent 6890 GC instrument. Metabolite quantification was inferred from a standard curve and fractional enrichment of ^13C in metabolites was corrected for the natural abundance of ^13C and ^15N.
Polar metabolites were extracted and dried as in the GCMS method. Samples were resuspended in 15 μl of HPLC grade water. 5 μl of each sample was injected and analyzed using a 5500 QTRAP triple quadrupole mass spectrometer (AB/Sciex) coupled to a Prominence UFLC system (Shimadzu) as reported previously.
Newly synthesized serine has a mass-shift of 3 (M+3) due to the incorporation of glucose-derived ^13C via 3-PG. The kinetics of serine labeling were investigated.
Description for MCF7 cells: as §3
Description for MDA-MB-468 cells: as §3

For `CCOC(=O)c1sc(NC(=O)c2ccco2)c(SC#N)c1C` [Compound (1), Ethyl 5-(furan-2-carboxamido)-3-methyl-4-thiocyanatothiophene-2-carboxylate], in the assay on LDH, the LDH oligomerization state entry was “No such effect”. Besides, the “purine metabolites (AMP, dAMP, IMP, GDP, dGDP, GMP levels)” value in [1] is “down regulated”. Moreover, the “decrease of intracellular serine levels” value in assay [1] (normalized to control treatment) was 50%. Besides, the “time dependence of onset of inhibition” value at PHGDH [2] (increasing pre-incubation time of drug and PHGDH) is recorded as “progressively more potent”. For the same compound, at PHGDH [2] (with respect to both substrates, decreasing Vmax), the mode of inhibition entry was “non-competitive”. Moreover, the “effect on MDH1” value at MDH1 is on record as “no effect”. Besides, the “inhibition of truncated PHGDH” value in [3] is given as “still inhibited”. Besides, the glycolytic metabolites entry with cells is given as “unperturbed”. In addition, the serine labeling result in the assay with Carney cells (15 μM) is “trended towards a decrease”; in the assay on Carney cells (30 μM), “significantly decreased”. The “perturbations in labeling (3-PG, pyruvate, lactate versus serine)” value in the assay on Carney cells (GCMS) is “specific to serine”. Besides, on PHGDH [4], the PHGDH oligomerization state entry is recorded as “shifted the PHGDH equilibrium from the tetrameric to the dimeric state”. The “sensitivity of proliferation to drug” value in the assay on MCF7 cells (serine deplete conditions) is on record as “partially sensitive”; with MCF7 cells (serine replete conditions), “insensitive”. The inhibition at 30 µM in assay [5] lay in the range of 35 to 60%. Moreover, the “effect on lactate dehydrogenase (LDH)” value in assay [6] was “no effect; also recorded: does not inhibit”.

With `Cc1c(C(=O)O)sc(NC(=O)c2ccco2)c1SC#N` [carboxylic acid derivative, 5-(furan-2-carboxamido)-3-methyl-4-thiocyanatothiophene-2-carboxylic Acid], the effect on proliferation entry in the assay with MDA-MB-468 cells is given as “not effective”. Also, the “potency against and selectivity for PHGDH, acid derivative versus parent” value at PHGDH [2] (in vitro) is “equally potent”.
